Laboratory results published in PubChem BioAssay AID342 (DTP/NCI, 2004).
“And” between values parts separate entries of the source, which are not always exact repeats. Equal entries are not always repeated.

Test system: Swiss mice, Sarcoma 180 sc, mean tumor weight T/C
Experiment: NCI In Vivo Anticancer Drug Screen. Data for tumor model Sarcoma 180 (subcutaneous) in Swiss mice
Conditions: endpoint: mean tumor weight, higher = larger tumour
In short: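 Readout is the ratio of treated-group measurement to vehicle-control measurement (T/C), based on survival or tumor size in mice carrying transplanted tumors.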

C[C@]12CC[C@H]3[C@@H](CC=C4C[C@@H](OC5CCCCO5)CC[C@@]43C)[C@@H]1CC[C@@H]2O (stereo partly specified)
T/C (dose: 25.0 mg/kg/injection, schedule: Q#A X014 (oral), vehicle: steriod suspending solution): 95 % of control
T/C (dose: 75.0 mg/kg/injection, schedule: Q#A X014 (oral), vehicle: steriod suspending solution): 95 % of control
T/C (dose: 187.5 mg/kg/injection, schedule: Q#A X014 (oral), vehicle: steriod suspending solution): 80 % of control

Clc1ccc2c(Cl)ncnc2c1
T/C (dose: 22.0 mg/kg/injection, schedule: Q#A X014 (ip), vehicle: methylcellulose (MC)): 58 % of control and 64 % of control
T/C (dose: 22.5 mg/kg/injection, schedule: Q#A X014 (ip), vehicle: methylcellulose (MC)): 80 % of control
T/C (dose: 33.0 mg/kg/injection, schedule: Q#A X014 (ip), vehicle: methylcellulose (MC)): 57 % of control and 65 % of control
T/C (dose: 33.5 mg/kg/injection, schedule: Q#A X014 (ip), vehicle: methylcellulose (MC)): 51 % of control
T/C (dose: 50.0 mg/kg/injection, schedule: Q#A X014 (ip), vehicle: methylcellulose (MC)): 42 % of control and 48 % of control and 64 % of control
T/C (dose: 75.0 mg/kg/injection, schedule: Q#A X014 (ip), vehicle: methylcellulose (MC)): 21 % of control

Nc1nc(=O)n(C2CC(O)C(CO)O2)cc1F (stereo unspecified)
T/C (dose: 22.0 mg/kg/injection, schedule: Q#A X014 (ip), vehicle: saline): 10 % of control
T/C (dose: 33.5 mg/kg/injection, schedule: Q#A X014 (ip), vehicle: saline): 7 % of control
T/C (dose: 50.0 mg/kg/injection, schedule: Q#A X014 (ip), vehicle: saline): 3 % of control
T/C (dose: 75.0 mg/kg/injection, schedule: Q#A X014 (ip), vehicle: saline): 2 % of control

O=C(O)C(O)C(F)(F)F (stereo unspecified)
T/C (dose: 15.5 mg/kg/injection, schedule: Q#A X014 (ip), vehicle: saline): 111 % of control
T/C (dose: 62.5 mg/kg/injection, schedule: Q#A X014 (ip), vehicle: saline): 90 % of control
T/C (dose: 125.0 mg/kg/injection, schedule: Q#A X014 (ip), vehicle: saline): 123 % of control

CCCCCCCCCCCCNCCCCCCCCCCCC
T/C (dose: 2.5 mg/kg/injection, schedule: Q01DX007 (ip), vehicle: water): 107 % of control
T/C (dose: 5.0 mg/kg/injection, schedule: Q01DX007 (ip), vehicle: water): 54 % of control
T/C (dose: 7.5 mg/kg/injection, schedule: Q01DX007 (ip), vehicle: water): 60 % of control
T/C (dose: 10.0 mg/kg/injection, schedule: Q01DX007 (ip), vehicle: water): 44 % of control

CCCCCCCCCCCC1=C(O)C(=O)C(CC2=C(O)C(=O)C(CCCCCCCCCCC)=C(O)C2=O)=C(O)C1=O
T/C (dose: 7.5 mg/kg/injection, schedule: Q01DX007 (ip), vehicle: carboxymethylcellulose (CMC)): 110 % of control
T/C (dose: 15.0 mg/kg/injection, schedule: Q01DX007 (ip), vehicle: carboxymethylcellulose (CMC)): 85 % of control
T/C (dose: 30.0 mg/kg/injection, schedule: Q01DX007 (ip), vehicle: carboxymethylcellulose (CMC)): 50 % of control
T/C (dose: 60.0 mg/kg/injection, schedule: Q01DX007 (ip), vehicle: carboxymethylcellulose (CMC)): 123 % of control

Nc1ccc2c(c1)Cc1cc(NC=O)ccc1-2
T/C (dose: 55.5 mg/kg/injection, schedule: Q01DX007 (ip), vehicle: carboxymethylcellulose (CMC)): 98 % of control
T/C (dose: 83.3 mg/kg/injection, schedule: Q01DX007 (ip), vehicle: carboxymethylcellulose (CMC)): 52 % of control
T/C (dose: 125.0 mg/kg/injection, schedule: Q01DX007 (ip), vehicle: carboxymethylcellulose (CMC)): 72 % of control
T/C (dose: 187.5 mg/kg/injection, schedule: Q01DX007 (ip), vehicle: carboxymethylcellulose (CMC)): 36 % of control

Cc1ccc(S(=O)(=O)N=S2CCCC2)cc1
T/C (dose: 111.0 mg/kg/injection, schedule: Q#A X014 (ip), vehicle: water): 90 % of control
T/C (dose: 166.5 mg/kg/injection, schedule: Q#A X014 (ip), vehicle: water): 107 % of control
T/C (dose: 250.0 mg/kg/injection, schedule: Q#A X014 (ip), vehicle: water): 91 % of control
T/C (dose: 375.0 mg/kg/injection, schedule: Q#A X014 (ip), vehicle: water): 66 % of control

CO[C@H]1CC[C@@]2(C)C(=CC[C@H]3[C@@H]4C[C@H](O)C[C@@]4(C)CC[C@@H]32)C1
T/C (dose: 2.5 mg/kg/injection, schedule: Q01DX007 (sc), vehicle: steriod suspending solution): 105 % of control
T/C (dose: 5.0 mg/kg/injection, schedule: Q01DX007 (sc), vehicle: steriod suspending solution): 80 % of control

O=S(c1ccc(Cl)cc1)c1ccc(Cl)cc1
T/C (dose: 250.0 mg/kg/injection, schedule: Q01DX007 (ip), vehicle: carboxymethylcellulose (CMC)): 105 % of control
T/C (dose: 500.0 mg/kg/injection, schedule: Q01DX007 (ip), vehicle: carboxymethylcellulose (CMC)): 96 % of control
